Reference: BigSolDB 2.1

## C=C1CCC[C@]2(C)C[C@]3(O)OC(=O)C(C)=C3C[C@@H]12
In diethyl ether, 283.2 K
  solubility (mole fraction): 0.00277
In diethyl ether, 288.2 K
  solubility (mole fraction): 0.00375
In diethyl ether, 293.2 K
  solubility (mole fraction): 0.00562
In diethyl ether, 298.2 K
  solubility (mole fraction): 0.00738
In diethyl ether, 303.2 K
  solubility (mole fraction): 0.00939
In ethanol, 283.2 K
  solubility (mole fraction): 0.00443
In ethanol, 288.2 K
  solubility (mole fraction): 0.00547
In ethanol, 293.2 K
  solubility (mole fraction): 0.00673
In ethanol, 298.2 K
  solubility (mole fraction): 0.00809
In ethanol, 303.2 K
  solubility (mole fraction): 0.00966
In ethanol, 308.2 K
  solubility (mole fraction): 0.0113
In ethanol, 313.2 K
  solubility (mole fraction): 0.0131
In ethanol, 318.2 K
  solubility (mole fraction): 0.0151
In ethanol, 323.2 K
  solubility (mole fraction): 0.0171
In ethyl acetate, 283.2 K
  solubility (mole fraction): 0.0224
In ethyl acetate, 288.2 K
  solubility (mole fraction): 0.0228
In ethyl acetate, 293.2 K
  solubility (mole fraction): 0.0236
In ethyl acetate, 298.2 K
  solubility (mole fraction): 0.0242
In ethyl acetate, 303.2 K
  solubility (mole fraction): 0.0252
In ethyl acetate, 308.2 K
  solubility (mole fraction): 0.0261
In ethyl acetate, 313.2 K
  solubility (mole fraction): 0.0271
In ethyl acetate, 318.2 K
  solubility (mole fraction): 0.0282
In ethyl acetate, 323.2 K
  solubility (mole fraction): 0.0293
In n-hexane, 283.2 K
  solubility (mole fraction): 2.44e-05
In n-hexane, 288.2 K
  solubility (mole fraction): 4.12e-05
In n-hexane, 293.2 K
  solubility (mole fraction): 6.39e-05
In n-hexane, 298.2 K
  solubility (mole fraction): 8.32e-05
In n-hexane, 303.2 K
  solubility (mole fraction): 0.000113
In n-hexane, 308.2 K
  solubility (mole fraction): 0.000153
In n-hexane, 313.2 K
  solubility (mole fraction): 0.000202
In n-hexane, 318.2 K
  solubility (mole fraction): 0.000272
In n-hexane, 323.2 K
  solubility (mole fraction): 0.000336
